The supplement of paper PMC10307832

Legend:
Assay in all cases: relative viability (nuclei count vs DMSO), 5 days (fraction); higher = more cells survive
[1] = compound: C1CNCCC1C2=CC(=NN2)C3=CC=NC=C3 + CS(=O)(=O)N1CCN(Cc2cc3nc(-c4cccc5[nH]ncc45)nc(N4CCOCC4)c3s2)CC1 [Pictilisib] (partner 1 µM)
How it was run: (§1)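 Lung cancer cell lines, seeded in 1536-well plates, were treated the following day by pin tool with a single drug or with five library-drug doses (not always all listed) in √10 steps on top of a fixed anchor-drug dose. Cells were fixed and nuclei stained in one step after 5 days, and nuclei were counted. Relative viability is the nuclei count for treated wells divided by that for vehicle wells, reported as medians of duplicate plates.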

[2] = compound: C[C@@H](N)c1ccc(C(=O)Nc2ccnc3[nH]ccc23)cc1 + N=C(N)NC(=N)NCCc1ccccc1 [Phenformin] (partner 250 µM)
How it was run: as §1

[3] = compound: C[C@@H](N)c1ccc(C(=O)Nc2ccnc3[nH]ccc23)cc1 + O=C(c1cc(Cc2n[nH]c(=O)c3ccccc23)ccc1F)N1CCN(C(=O)C2CC2)CC1 [Olaparib] (partner 8 µM)
How it was run: as §1

Tanzisertib + Crizotinib = compound: O[C@H]1CC[C@H](Nc2ncc3nc(Nc4c(F)cc(F)cc4F)n([C@H]4CCOC4)c3n2)CC1 [Tanzisertib] + C[C@@H](Oc1cc(-c2cnn(C3CCNCC3)c2)cnc1N)c1c(Cl)ccc(F)c1Cl [Crizotinib] (partner 1 µM)
How it was run: as §1

| Cell Line | relative viability ([1]; first compound 0.08 µM) | relative viability ([1]; first compound 0.8 µM) | relative viability ([1]; first compound 2.53 µM) | relative viability ([1]; first compound 8 µM) | relative viability ([2]; first compound 0.04 µM) | relative viability ([2]; first compound 0.1265 µM) | relative viability ([2]; first compound 0.4 µM) | relative viability ([2]; first compound 4 µM) | relative viability ([3]; first compound 0.04 µM) | relative viability ([3]; first compound 0.1265 µM) | relative viability ([3]; first compound 0.4 µM) | relative viability ([3]; first compound 4 µM) | relative viability (Tanzisertib + Crizotinib; first compound 0.08 µM) | relative viability (Tanzisertib + Crizotinib; first compound 0.253 µM) | relative viability (Tanzisertib + Crizotinib; first compound 0.8 µM) | relative viability (Tanzisertib + Crizotinib; first compound 2.53 µM) | relative viability (Tanzisertib + Crizotinib; first compound 8 µM) | relative viability ([3]; first compound 1.265 µM) | relative viability ([2]; first compound 1.265 µM) |
| --- | --- | --- | --- | --- | --- | --- | --- | --- | --- | --- | --- | --- | --- | --- | --- | --- | --- | --- | --- |
| NCI-H23 | 0.447 | 0.533 | 0.648 | 0.601 | 0.744 | 0.798 | 0.85 | 0.732 | 0.311 | 0.335 | 0.368 | 0.3 | 0.568 | 0.553 | 0.554 | 0.601 | 0.598 |  |  |
| NCI-H322M | 0.423 | 0.482 | 0.523 | 0.479 | 0.874 | 0.886 | 0.871 | 0.72 | 0.862 | 0.944 | 0.901 | 0.979 | 0.779 | 0.928 | 0.832 | 0.882 | 0.709 | 1.01 |  |
| NCI-H358 | 0.323 | 0.376 | 0.357 | 0.422 | 0.374 | 0.358 | 0.314 | 0.246 | 0.625 | 0.628 | 0.69 | 0.479 | 0.748 | 0.716 | 0.511 | 0.506 | 0.485 | 0.696 | 0.32 |
| NCI-H441 | 0.462 | 0.455 | 0.428 | 0.491 | 0.879 | 0.995 | 0.879 | 0.74 | 0.544 | 0.505 | 0.539 | 0.35 | 0.94 | 0.811 | 0.505 | 0.647 | 0.78 | 0.562 |  |
| NCI-H460 | 0.423 | 0.289 | 0.436 | 0.385 | 0.509 | 0.522 | 0.558 | 0.495 | 0.342 | 0.429 | 0.521 | 0.571 | 1.06 | 0.897 | 0.978 | 0.923 | 0.791 | 0.579 | 0.535 |
| NCI-H520 | 0.277 | 0.324 | 0.293 | 0.351 | 0.635 | 0.603 | 0.702 | 0.656 | 0.359 | 0.332 | 0.29 | 0.318 | 0.862 | 0.821 | 0.745 | 0.68 | 0.863 | 0.373 | 0.404 |
| NCI-H596 | 0.407 | 0.425 | 0.392 | 0.407 | 0.781 | 0.668 | 0.804 | 0.713 | 0.63 | 0.698 | 0.723 | 0.763 | 0.979 | 1.05 | 0.955 | 0.988 | 0.902 | 0.749 |  |
| NCI-H647 | 0.388 |  | 0.427 | 0.381 | 0.443 | 0.488 | 0.516 | 0.51 | 0.668 | 0.615 | 0.602 | 0.474 | 1.12 | 0.975 | 1.09 | 1.14 | 1.01 | 0.478 | 0.476 |
| NCI-H650 | 0.897 | 0.992 | 0.939 | 0.904 |  | 0.424 | 0.46 | 0.411 |  | 0.385 | 0.433 | 0.325 | 0.725 | 0.686 | 0.712 | 0.881 | 0.636 |  | 0.203 |
| NCI-H661 | 0.516 | 0.422 | 0.522 | 0.445 | 0.222 | 0.274 | 0.247 | 0.244 | 0.734 | 0.722 | 0.895 | 0.597 | 1.04 | 0.939 |  | 1.02 | 0.991 | 0.706 | 0.224 |
| NCI-H727 | 0.373 | 0.407 | 0.505 | 0.575 | 0.583 | 0.653 | 0.669 | 0.756 | 0.64 | 0.738 | 0.8 | 0.742 | 0.797 | 0.853 | 0.787 | 1.02 | 0.832 | 0.771 | 0.748 |
| NCI-H838 | 0.439 | 0.491 | 0.471 | 0.461 | 0.378 | 0.527 | 0.501 | 0.221 | 0.789 | 0.826 | 0.658 | 0.283 | 0.892 | 0.849 | 0.875 | 0.88 | 0.885 | 0.397 | 0.247 |
| NCI-H1355 | 0.501 | 0.52 | 0.517 | 0.423 | 0.393 | 0.469 | 0.498 | 0.388 | 0.723 | 0.75 | 0.877 | 0.696 | 1.12 | 1.11 | 1.06 | 1.08 | 1.06 | 0.709 | 0.436 |
| NCI-H1437 | 0.443 | 0.485 | 0.45 | 0.528 | 0.335 | 0.346 | 0.35 | 0.336 | 0.649 | 0.678 | 0.636 | 0.645 | 1.07 | 0.89 | 0.94 | 1.01 | 0.919 | 0.632 | 0.324 |
| NCI-H1650 | 0.353 | 0.701 | 0.632 | 0.63 | 0.434 | 0.463 | 0.345 | 0.421 | 0.81 | 0.943 | 0.812 | 0.763 | 1 | 1.06 | 1.07 | 0.914 | 0.803 | 0.822 | 0.331 |
| NCI-H1651 | 0.637 | 0.711 | 0.601 | 0.664 | 0.426 | 0.315 | 0.312 | 0.301 | 0.195 | 0.174 | 0.179 | 0.221 | 0.851 | 0.817 | 0.882 | 0.833 | 0.921 | 0.24 | 0.372 |
| NCI-H1666 | 0.463 | 0.335 | 0.641 | 0.463 | 0.534 | 0.603 | 0.651 | 0.561 | 0.786 | 0.764 | 0.856 | 0.906 | 0.902 | 0.934 | 1.09 | 1.03 | 1.09 | 0.825 | 0.631 |
| NCI-H1734 | 0.427 | 0.451 | 0.469 | 0.452 | 0.355 | 0.383 | 0.431 | 0.397 | 0.642 | 0.591 | 0.652 | 0.45 | 0.743 | 0.658 | 0.72 | 0.738 | 0.599 | 0.559 | 0.282 |
| NCI-H1755 | 0.423 | 0.412 | 0.419 | 0.372 | 0.504 | 0.687 | 0.657 | 0.426 | 0.91 | 0.963 | 0.873 | 0.743 | 0.85 | 0.821 | 0.863 | 0.839 | 0.777 | 0.839 | 0.525 |
| NCI-H1792 | 0.223 | 0.246 | 0.345 | 0.304 | 0.286 |  | 0.15 | 0.357 | 0.419 | 0.523 | 0.564 | 0.319 | 1.03 | 1.05 | 1.04 | 0.879 | 0.87 | 0.383 | 0.278 |
| NCI-H1915 | 1.03 | 0.885 | 0.965 | 0.906 | 0.289 | 0.37 | 0.38 | 0.319 |  | 0.229 | 0.26 | 0.216 | 0.929 | 0.91 | 0.862 | 0.904 | 0.856 |  |  |
| NCI-H1944 | 0.377 | 0.341 | 0.334 | 0.341 | 0.157 | 0.216 | 0.153 | 0.138 | 0.453 | 0.396 | 0.434 | 0.401 | 1.23 | 1.03 | 1.11 | 1.14 | 0.949 | 0.432 | 0.165 |
| NCI-H1975 | 0.325 | 0.305 | 0.331 | 0.307 | 0.359 | 0.405 | 0.39 | 0.255 | 0.771 | 0.757 | 0.78 | 0.523 | 0.892 | 1 | 0.954 | 0.935 | 0.915 | 0.67 | 0.347 |
| NCI-H1993 | 0.802 | 0.806 | 0.933 | 0.623 | 0.597 | 0.501 | 0.528 | 0.547 | 1.4 | 1.14 |  |  | 0.855 | 0.886 | 0.891 | 0.789 | 0.789 | 1.02 | 0.502 |
| NCI-H2009 | 0.81 | 0.859 | 0.872 | 0.859 | 0.473 | 0.531 | 0.468 | 0.435 | 0.657 | 0.666 | 0.611 | 0.547 | 1.04 | 1.13 | 1.02 | 1.12 | 1.06 | 0.595 | 0.443 |
| NCI-H2023 | 0.251 | 0.228 | 0.27 | 0.295 | 0.451 | 0.482 | 0.512 | 0.411 | 0.534 | 0.497 | 0.516 | 0.495 | 0.568 | 0.651 | 0.684 | 0.607 | 0.567 | 0.503 | 0.457 |
| NCI-H2085 | 0.406 |  | 0.448 | 0.546 | 0.628 | 0.77 | 0.778 | 0.636 | 0.762 | 0.726 | 0.667 | 0.619 | 0.875 | 0.805 | 0.819 | 0.889 | 0.93 | 0.706 | 0.359 |
| NCI-H2087 | 0.855 | 1.03 | 1.1 | 1.09 | 0.497 | 0.571 | 0.554 | 0.557 | 0.733 | 0.598 | 0.605 | 0.576 | 0.717 | 0.918 | 0.889 | 0.899 | 1.06 | 0.625 |  |
| NCI-H2126 | 0.521 | 0.492 | 0.55 | 0.539 | 0.588 | 0.558 | 0.592 | 0.502 | 0.945 | 0.946 | 0.915 | 0.948 | 1.09 | 1.01 | 1.03 | 0.985 | 1.03 | 0.988 | 0.505 |
